# Results taken from patent publication US20030040479A1, “Rotational intrathecal analgesia method and device” (Omeros Corporation, priority 2001, published 2003).
# Columns and labels:
# Type in all cases: in vivo
# male Sprague-Dawley rats [1] = assay: Rat hindpaw withdrawal latency (HWL) to mechanical stimulation, Randall Selitto Test; details: for % Changes of HWL to Mechanical Stimulation: 10 minutes after intrathecal injection
# male Sprague-Dawley rats [2] = assay: Rat hindpaw withdrawal latency (HWL) to thermal stimulation, hot-plate test; details: for % Changes of HWL to Thermal Stimulation: 10 minutes after intrathecal injection
# male Sprague-Dawley rats [3] = assay: Development of tolerance to intrathecal analgesia in rat HWL tests (thermal and mechanical); details: intrathecal every 12 hrs
# Protocol: A polyethylene catheter (Intramedic PE 10) was permanently implanted intrathecally with the inner tip at L3 to L5 in each animal. Rats displaying movement disorders following placement of the catheter were not used in the study. Injection volume was 10 μL of drug solution followed by 10 μL of 0.9% saline to flush the catheter. Intrathecal injections were performed every 12 hrs (morning and night).
# In the morphine only group, 8 μg morphine HCl was injected every 12 hrs until complete tolerance developed and in the nociceptin only group, 10 nmol nociceptin was injected every 12 hrs until complete tolerance developed. These doses were chosen from previous studies that determined an equianalgesic dosing for these two drugs. […]
# Solutions for intrathecal injection were prepared with sterilized saline (0.9%). […] The hindpaw withdrawal latency (HWL) was measured for both thermal and mechanical stimulation. […] A wedge shaped probe with a loading rate of 30 g/second was applied to the dorsal surface of the manually handled hindpaw and the mechanical stimulation required to initiate the struggle response was assessed. […] The HWLs were measured 15 min after the second intrathecal injection on a daily basis. […]
# [4] = day 1, drug alone, intrathecal, text summary of both hindpaws
compound,measurement,setting,value
"CN1CC[C@]23c4c5ccc(O)c4O[C@H]2[C@@H](O)C=C[C@H]3[C@H]1C5 [Morphine, morphine]",HWL increase using mechanical stimulation,male Sprague-Dawley rats [1]; [4],~55%
same,% Changes of HWL to Mechanical Stimulation,"male Sprague-Dawley rats [1]; day 1, left hindpaw",53.99 ± 2.96%
same,% Changes of HWL to Mechanical Stimulation,"male Sprague-Dawley rats [1]; day 1, right hindpaw",56.04 ± 3.38%
same,% Changes of HWL to Mechanical Stimulation,"male Sprague-Dawley rats [1]; day 2, left hindpaw",47.69 ± 2.54%
same,% Changes of HWL to Mechanical Stimulation,"male Sprague-Dawley rats [1]; day 2, right hindpaw",46.74 ± 2.52%
same,% Changes of HWL to Mechanical Stimulation,"male Sprague-Dawley rats [1]; day 3, left hindpaw",33.85 ± 1.60%
same,% Changes of HWL to Mechanical Stimulation,"male Sprague-Dawley rats [1]; day 3, right hindpaw",33.44 ± 1.03%
same,% Changes of HWL to Mechanical Stimulation,"male Sprague-Dawley rats [1]; day 4, left hindpaw",31.37 ± 2.02%
same,% Changes of HWL to Mechanical Stimulation,"male Sprague-Dawley rats [1]; day 4, right hindpaw",28.84 ± 2.73%
same,% Changes of HWL to Mechanical Stimulation,"male Sprague-Dawley rats [1]; day 5, left hindpaw",15.30 ± 1.39%
same,% Changes of HWL to Mechanical Stimulation,"male Sprague-Dawley rats [1]; day 5, right hindpaw",16.54 ± 1.26%
same,% Changes of HWL to Mechanical Stimulation,"male Sprague-Dawley rats [1]; day 6, left hindpaw",3.26 ± 1.86%
same,% Changes of HWL to Mechanical Stimulation,"male Sprague-Dawley rats [1]; day 6, right hindpaw",2.72 ± 1.94%
same,HWL increase using thermal stimulation,male Sprague-Dawley rats [2]; [4],approximately 67%
same,% Changes of HWL to Thermal Stimulation,"male Sprague-Dawley rats [2]; day 1, left hindpaw",66.26 ± 2.20%
same,% Changes of HWL to Thermal Stimulation,"male Sprague-Dawley rats [2]; day 1, right hindpaw",66.66 ± 1.51%
same,% Changes of HWL to Thermal Stimulation,"male Sprague-Dawley rats [2]; day 2, left hindpaw",61.25 ± 3.05%
same,% Changes of HWL to Thermal Stimulation,"male Sprague-Dawley rats [2]; day 2, right hindpaw",63.11 ± 0.64%
same,% Changes of HWL to Thermal Stimulation,"male Sprague-Dawley rats [2]; day 3, left hindpaw",51.66 ± 1.73%
same,% Changes of HWL to Thermal Stimulation,"male Sprague-Dawley rats [2]; day 3, right hindpaw",48.74 ± 2.40%
same,% Changes of HWL to Thermal Stimulation,"male Sprague-Dawley rats [2]; day 4, left hindpaw",43.63 ± 1.38%
same,% Changes of HWL to Thermal Stimulation,"male Sprague-Dawley rats [2]; day 4, right hindpaw",42.45 ± 1.70%
same,% Changes of HWL to Thermal Stimulation,"male Sprague-Dawley rats [2]; day 5, left hindpaw",23.85 ± 1.03%
same,% Changes of HWL to Thermal Stimulation,"male Sprague-Dawley rats [2]; day 5, right hindpaw",25.07 ± 2.07%
same,% Changes of HWL to Thermal Stimulation,"male Sprague-Dawley rats [2]; day 6, left hindpaw",−1.30 ± 2.36%
same,% Changes of HWL to Thermal Stimulation,"male Sprague-Dawley rats [2]; day 6, right hindpaw",0.51 ± 1.61%
same,day by which complete (total) tolerance exists,male Sprague-Dawley rats [3],6 days
